This is an account of results in article PMC11809415 (The Journal of Cell Biology, 2025).

Data set [1] concerns F-actin. Briefly: Cryo-EM of peptide mixed with F-actin. Type of data set: binding, rabbit skeletal muscle α-actin. As to the method:
(§1) Rabbit skeletal muscle α-actin was purified from muscle acetone powder (Pel-Freez Biologicals) as described in [Merino et al. (2018)] and stored in 50 μl aliquots at −70°C.
Actin filaments were prepared as for cosedimentation assays. Shortly before plunging, F-actin was diluted to 6 µM with F-buffer. […] 3 μl of sample was applied onto a freshly glow-discharged copper R2/1 300 mesh grid (Quantifoil), blotted for 8 s on both sides with blotting force −15, and plunge-frozen in liquid ethane using the Vitrobot Mark IV system (Thermo Fisher Scientific) at 13°C and 100% humidity.
The datasets were collected using a Talos Arctica transmission electron microscope (Thermo Fisher Scientific) equipped with an XFEG at 200 kV using the automated data-collection software EPU version 2.7 (Thermo Fisher Scientific). Two images per hole with a defocus range of −0.5 to −2.5 µm were collected with a K3 detector (Gatan) operated in super-resolution mode. […] After motion correction was performed in Relion (RRID:SCR_016274) version 3.1, the micrographs were imported into Cryosparc for patch CTF estimation. […]
Before deposition, the structures were refined in real space in Phenix (RRID:SCR_014224) ([Liebschner et al., 2019]) with secondary structure and reference model restraints. The statistics presented in Table 1 were calculated by MolProbity (RRID:SCR_014226) ([Williams et al., 2018]).

Data set [2] has as its system F-actin. Briefly: Actin bundling assay using low-speed centrifugation (10,000 g). It counts as biochemical, rabbit skeletal muscle α-actin. Particulars: for F-actin in the pellet: 10 μM actin filaments, 5 min RT, 10,000 g. As to the method: as §1
8 μl of actin filaments at 10 μM were mixed with peptides at the specified concentration, incubated for 5 min at room temperature, and spun down at 10,000 g for 10 min at 4°C. Aliquots of the supernatant and resuspended pellet fractions were separated on SDS-polyacrylamide gels with 2,2,2-trichloroethanol ([Ladner-Keay et al., 2018]) and visualized with ultraviolet light.

For the next data set, the system named is primary neurons. Particulars: ref Patel et al., 2017; cited from earlier work. From the text: (§2) However, in Xenopus XTC cells, expr ...
For the next data set, the system named is cells. Particulars: ref Vosatka et al., 2022; cited from earlier work.
Description: as §2

The subject of the next data set is Drosophila. Particulars: ref Spracklen et al., 2014; cited from earlier work.
Description: as §2

The test system of a further data set is Xenopus XTC cells. Particulars: ref Belin et al., 2014; cited from earlier work.
Description: as §2

For “MARPRGAGPCSPGLERAPRRSVGELRLLFEARCAAVAAAAAAG [F-tractin, 43 amino acid peptide, residues 10–52 of rat inositol 1,4,5-trisphosphate 3-kinase A; EGFP fusion in cell assays]”, the “F-tractin occupancy on F-actin” value in the data set on F-actin [1] (estimated from alignment-free 3D classification, 100 μM peptide) is ~ 50%. The “appearance of actin filaments by cryo-EM” value in the data set with F-actin [1] (preformed F-actin incubated with 100 μM peptide) is given as “large heterogeneous bundles instead of single actin filaments”. Also, in the data set on F-actin [2] (in vitro, up to 100 µM, low-speed centrifugation and cryo-EM), the “actin bundling (in words)” value is on record as “strong bundling effect on F-actin”. The “F-actin in the pellet” value in the data set with F-actin [2] (peptide 1 µM, Repeat 1) is given as 0,052087; in the data set on F-actin [2] (peptide 1 µM, Repeat 2), 0,032888; in the data set with F-actin [2] (peptide 1 µM, Repeat 3), 0,047528; in the data set on F-actin [2] (peptide 10 µM, Repeat 1), 0,092603; with F-actin [2] (peptide 10 µM, Repeat 2) it was 0,600815; in the data set with F-actin [2] (peptide 10 µM, Repeat 3), 0,323365. The “F-actin in the pellet” value in the data set with F-actin [2] (peptide 100 µM, Repeat 1) is given as 0,999376; in the data set with F-actin [2] (peptide 100 µM, Repeat 2), 0,989657; in the data set with F-actin [2] (peptide 100 µM, Repeat 3), 0,931572. Also, in the data set with primary neurons, the “reporting on F-actin organization in primary neurons” value was “without notable effects on cell function”. For the same sequence, the “cell stiffness and cell migration” value in the data set on cells is “increase in cell stiffness and reduction in cell migration”. Also, the “effect on fertility and actin in Drosophila oogenesis” value with Drosophila is given as “without causing female sterility or significant actin defects”. Further, the “effect of expression on actin structures” value with Xenopus XTC cells is “induced radial actin bundles and longer filopodia”.
